Source: US20090325891A1, “Cartilage regeneration-promoting agent” (EISAI FOOD & CHEMICAL CO., LTD., priority 2006, published 2009)
Values joined by “and” are separate entries in the source; they are usually repeats but may differ in a detail not shown here. Equal entries are not always repeated.

Legend:
Rabbit chondrocytes = test: Glycosaminoglycan production in rabbit chondrocytes; type: cell-based; conditions: per number of viable cells; 12 days culture; hydroxytyrosol 100 ng/ml, glucosamine hydrochloride 4 μg/ml
Method: The promoting effects of hydroxytyrosol and glucosamine hydrochloride on the production of glycosaminoglycan and on the production of hyaluronic acid in chondrocytes were evaluated. Rabbit chondrocytes (rabbit articular chondrocytes in primary culture, F-8, Cell Garage Co., Ltd.) were washed with phosphate buffered saline solution, and then cells were released with 0.05% trypsin-EDTA solution. The released chondrocytes were cultured in DMEM medium containing 10% FBS, 100 U/ml penicillin, 100 μg/ml streptomycin, 100 μM trisodium ascorbyl-2-phosphate (available from SIGMA-ALDRICH Corp.), and 25 mM HEPES (available from Invitrogen Corporation) at 37° C. in a humidified condition with 5% CO2. […] For each group after 12 days culture, the number of viable cells was determined by WST assay. The percentage of the amount of glycosaminoglycan or hyaluronic acid produced by each experimental group, relative to the control group, was calculated according to the following formula: ((amount produced by each experimental group/number of cells of each experimental group)×100)/(amount produced by the control group/number of cells of the control group). The amount of glycosaminoglycan produced by the above-mentioned cultured cells was measured using a measurement kit (acid mucopolysaccharide quantification kit, available from Cell Garage Co., Ltd.).

[1] = system: lateral vastus muscles and femoral biceps muscles; test: Muscle weight ratio (injured side vs opposite side) in rabbit articular cartilage injury model; type: in vivo; conditions: for Muscle weight ratio Femoral biceps muscle, Mean / Muscle weight ratio Lateral vastus muscle, Mean: group mean, 6 rabbits; for Muscle weight ratio Femoral biceps muscle / Muscle weight ratio Lateral vastus muscle: individual rabbits, injured side vs opposite side
Method: (§1) The rabbit articular cartilage injury model was prepared based on the method of Hashida et. al. (See, Macromolecular Bioscience, 3, (2003) 596-603), and Tamai et. al. (See, Carbohydrate Polymers, 48, (2002) 369-378, and Carbohydrate Polymers, 54, (2003) 251-262).
(§2) Initially, each animal was anesthetized by injecting pentobarbital sodium (40 mg/kg) intraperitoneally. Next, hairs at the knee joint of the left hind limb of the animal were clipped and disinfected with 0.5% chlorhexidine gluconate solution and 70% ethanol solution. Then, an incision was made on the skin on the lateral portion of the knee joint from the central part of the femur toward the tibial tuberosity. The articular capsule was exposed and incised. Further, the knee joint was exposed completely by dislocating the patella toward the medial side. Three holes of 2 mm size in diameter and 4 mm in depth were made by using a handdrill one at the medial trochlear ridge and two at the trochlear sulcus of the femur. The incised portion was washed with sterile saline solution and the articular capsule, and at the same time, the subcutaneous tissues and the skin were sutured with a synthetic absorbent thread and with nylon thread, respectively. During one week after the operation, the sutured portion of the skin was disinfected by povidone-iodine once a day and 10 mg/kg of oxytetracycline hydrochloride was subcutaneously administered twice a day.
(§3) After the formation of injury to articular cartilage, for the HT group, the product containing 20% by mass of hydroxytyrosol obtained in Production Example 1 was dissolved in tap water and administered using a water bottle at a rate of 500 mg/kg (100 mg/kg of hydroxytyrosol) per day for 21 days. After making sure that all of the water containing the drug was taken in, rabbits were fed with sterile tap water. The control was fed with sterile tap water ad libitum.
For each animal, left and right lateral vastus muscles and femoral biceps muscles were collected, and weights were measured. The muscle weight ratio was calculated by comparing the side, in which cartilage injury was made, with the opposite side, and Student's t-test was performed between the control group and the HT group.
(§4) In the same way as in Example 1, the cartilage regeneration-promoting effects were investigated with respect to hydroxytyrosol (100 mg/kg per day, HT group) and with respect to glucosamine hydrochloride (800 mg/kg per day, hereinafter, GAH group) for comparison. The control group was set in the same way as in Example 1.

proteoglycan = test: Image analysis of Safranin O staining (proteoglycan) of knee articular cartilage; type: in vivo, rabbit
Method: as §1, §2, §3
The specimens stained with Safranin O and with Alcian blue were prepared in the same way as mentioned above and subjected to image analysis. The 200 times magnified images of specimens were scanned into the computer using a digital camera (Olympus DP70, manufactured by Olympus Corporation). Then, two locations (20,000 pixels) were randomly sampled, and the density of the site stained in a specific color (site stained with Safranin O:
corresponding to proteoglycan, site stained with Alcian blue: corresponding to glycosaminoglycan) was measured. For the obtained values, Student's t-test was performed between the control group and the HT group.
as §4

[2] = Observation of general conditions and body weight; type: in vivo, rabbit
Method: as §3
During the experimental period, diarrhea, appetite, and hair gloss or coat color of each rabbit were observed. In addition, body weight was measured per week.
as §4

[3] = Example 2, hydrochloride, female rabbits
[4] = Example 2, hydrochloride, male rabbits
[5] = Example 2, injured site of cartilage

Question: Which “amount of glycosaminoglycan produced compared to the control group” value (Rabbit chondrocytes) does the source give for `Cl.N[C@H]1C(O)O[C@H](CO)[C@@H](O)[C@@H]1O` (stereo partly shown) [GAH group, glucosamine hydrochloride, reference compound] here?
Answer: 147.0%

Question: And the “muscle weight of the femoral biceps muscle (in words)” value ([1]; Example 2)?
Answer: marked decrease

Question: What about the “muscle weight of the lateral vastus muscle (in words)” value ([1]; Example 2) of the same molecule?
Answer: slight decrease

Question: And the “Muscle weight ratio Femoral biceps muscle, Mean” value ([1]; Example 2, control 83.80)?
Answer: 83.62%

Question: What about the “Muscle weight ratio Lateral vastus muscle, Mean” value ([1]; Example 2, control 91.91) of the same molecule?
Answer: 92.03%

Question: What about the “Muscle weight ratio Femoral biceps muscle” value [1, 3] of the same molecule?
Answer: 78.13% and 86.21% and 65.10%

Question: And the “Muscle weight ratio Lateral vastus muscle” value [1, 3]?
Answer: 82.24% and 96.46% and 90.85%

Question: What about the “Muscle weight ratio Femoral biceps muscle” value [1, 4] of the same molecule?
Answer: 92.37% and 86.12% and 93.81%

Question: And the “Muscle weight ratio Lateral vastus muscle” value [1, 4]?
Answer: 98.02% and 89.59% and 94.99%

Question: What about the “density at the site stained with Safranin O (proteoglycan), injured site of cartilage, vs control” value (“density … injured site of cartilage, vs control” for short) (proteoglycan; [5]) of the same molecule?
Answer: significant increase

Question: What about the “density at the site stained with Safranin O, normal site and growth zone of cartilage, vs control” value (proteoglycan; Example 2) of the same molecule?
Answer: no difference

Question: And the “Body weight changes vs control group” value ([2]; Example 2)?
Answer: almost the same as that of the control group

Question: What about the general conditions ([2]; Example 2, HT 100 mg/kg per day, GAH 800 mg/kg per day) of the same molecule?
Answer: change in general conditions was not observed

Question: For `OCCc1ccc(O)c(O)c1` [HT group, 2-(3,4-Dihydroxyphenyl)ethanol], which “amount of glycosaminoglycan produced compared to the control group” value (Rabbit chondrocytes) is on record?
Answer: 119.8%

Question: What about the “muscle weight of the femoral biceps muscle (in words)” value ([1]; Example 1) of the same molecule?
Answer: little decrease

Question: What about the “muscle weight of the lateral vastus muscle (in words)” value ([1]; Example 1) of the same molecule?
Answer: decreased slightly

Question: What about the “Muscle weight ratio Lateral vastus muscle, Mean” value ([1]; Example 1, control 88.84) of the same molecule?
Answer: 95.93%

Question: And the “Muscle weight ratio Femoral biceps muscle, Mean” value ([1]; Example 1, control 88.99)?
Answer: 100.08%

Question: And the “Muscle weight ratio Femoral biceps muscle” value ([1]; Example 1, female rabbits)?
Answer: 100.18% and 98.45% and 93.46%

Question: What about the “Muscle weight ratio Lateral vastus muscle” value ([1]; Example 1, female rabbits) of the same molecule?
Answer: 105.30% and 96.92% and 80.89%

Question: What about the “Muscle weight ratio Femoral biceps muscle” value ([1]; Example 1, male rabbits) of the same molecule?
Answer: 94.80% and 106.36% and 107.22%

Question: And the “Muscle weight ratio Lateral vastus muscle” value ([1]; Example 1, male rabbits)?
Answer: 93.29% and 95.10% and 104.10%

Question: What about the “muscle weight of the femoral biceps muscle (in words)” value ([1]; Example 2) of the same molecule?
Answer: little decrease

Question: What about the “muscle weight of the lateral vastus muscle (in words)” value ([1]; Example 2) of the same molecule?
Answer: little decrease

Question: What about the “Muscle weight ratio Femoral biceps muscle, Mean” value ([1]; Example 2, control 83.80) of the same molecule?
Answer: 100.59%

Question: What about the “Muscle weight ratio Lateral vastus muscle, Mean” value ([1]; Example 2, control 91.91) of the same molecule?
Answer: 98.48%

Question: What about the “Muscle weight ratio Femoral biceps muscle” value ([1]; Example 2, female rabbits) of the same molecule?
Answer: 90.91% and 111.86% and 93.42%

Question: What about the “Muscle weight ratio Lateral vastus muscle” value ([1]; Example 2, female rabbits) of the same molecule?
Answer: 94.98% and 98.56% and 92.43%

Question: What about the “Muscle weight ratio Femoral biceps muscle” value ([1]; Example 2, male rabbits) of the same molecule?
Answer: 101.37% and 104.66% and 101.31%

Question: And the “Muscle weight ratio Lateral vastus muscle” value ([1]; Example 2, male rabbits)?
Answer: 84.93% and 111.10% and 108.90%

Question: And the “density at the site stained with Safranin O, normal site and growth zone of cartilage, vs control” value (proteoglycan; Example 1)?
Answer: no difference

Question: What about the “density … injured site of cartilage, vs control” value (proteoglycan; Example 1, site of cartilage at which injury was created) of the same molecule?
Answer: significant increase

Question: What about the “density … injured site of cartilage, vs control” value (proteoglycan; [5]) of the same molecule?
Answer: significant increase

Question: And the “density at the site stained with Safranin O, normal site and growth zone of cartilage, vs control” value (proteoglycan; Example 2)?
Answer: no difference

Question: And the “Body weight changes vs control group” value ([2]; rabbit, in vivo)?
Answer: almost the same as that of the control group

Question: What about the “body weight change during test period vs control group” value ([2]; rabbit, in vivo) of the same molecule?
Answer: significant difference was not observed

Question: And the “general conditions (diarrhea, appetite, hair gloss or coat color)” value ([2]; rabbit, in vivo, 100 mg/kg)?
Answer: marked change was not observed
